Assay results as given in patent US8748412B2, “Phenylalanine derivatives and their use as non-peptide GLP-1 receptor modulators” (Argusina Bioscience Inc., priority 2011, dated 2014).

What follows are compounds tested against T1, human GLP1R (Homo sapiens, UniProt P43220) (assay: Human GLP-1 receptor transfected cell assay (MRE/CRE-luciferase reporter gene, agonist activity)). Details: 6 h; concentration 1 μM; read-out: Activity (agonist), percentage of the activity of the control.
T1 construct: expressed in transfected cells; host or cells: CHO cells (ATCC), transient transfection with pCMV-human GLP1R
T1 sequence (P43220 24-463): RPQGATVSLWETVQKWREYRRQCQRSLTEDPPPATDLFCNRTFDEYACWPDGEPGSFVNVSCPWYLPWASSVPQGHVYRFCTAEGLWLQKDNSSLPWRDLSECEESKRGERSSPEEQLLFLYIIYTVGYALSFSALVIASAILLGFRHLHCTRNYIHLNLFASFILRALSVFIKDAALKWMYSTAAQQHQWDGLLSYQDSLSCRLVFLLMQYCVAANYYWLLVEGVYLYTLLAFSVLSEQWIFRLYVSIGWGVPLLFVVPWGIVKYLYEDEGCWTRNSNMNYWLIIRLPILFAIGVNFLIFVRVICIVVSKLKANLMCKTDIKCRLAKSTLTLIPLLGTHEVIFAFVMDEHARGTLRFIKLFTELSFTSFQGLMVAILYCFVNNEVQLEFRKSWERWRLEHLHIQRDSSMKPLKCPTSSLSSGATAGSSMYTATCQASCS
Format: cell-based
Procedure: The glucagon-like peptide I receptor (GLP1R) is a class B Gs-coupled membrane receptor, an agonist of which activates adenylate cyclase (AC) and elevates intracellular cAMP level. In turn, the high content of secondary messengers can activate the cAMP response element binding protein (CREB), which can translocate into nucleus to activate gene transcription.
A reporter gene based screening assay was established to measure the effect of a compound on GLP1R. In this assay, a compound was incubated with CHO cells transiently transfected with a human GLP1R plasmid and a multiple response element (MRE)/cAMP response element (CRE)-driven luciferase reporter plasmid. Once luciferase was induced by the compound, its specific substrate can be activated to produce light signal for measurement.
Materials used in this assay included: (i) cell line: Chinese hamster ovary (CHO) cells (ATCC); (ii) fetal bovine serum (FBS) (Biochrom Co.); (iii) culture medium: RPMI1640 (Invitrogen Co.) supplemented with 10% FBS; (iv) LIPOFECTAMINE™ 2000 Reagent (Invitrogen Co.); (v) plasmids: pCMV-human GLP1R and pGL3-1905 reporter plasmid; (vi) GLP1 (7-36 amide) peptide (Sigma Co.); and (vii) BRIGHT-GLO™ Luciferase Assay System (Promega Co.).
Instruments used in this assay included: (i) Form a carbon dioxide incubator (Thermo Form a Co.); and (ii) Flexstation 3 (Molecular Device Co.).
Before transfection, CHO cells were plated into a 6-well culture plate at 800,000/2 mL/well, and cultured at 37° C. in 5% CO2 overnight. On the transfection day, cells were transfected with receptor plasmid and reporter plasmid using LIPOFECTAMINE™ 2000 reagent. After 6-hour transfection, cells were digested and seeded into 96-well plates at 20,000/100 μL/well. After 14-16 hour incubation, transfected cells were washed with 100 μL serum-free RPMII 640 medium first, and then added 50 μL of the culture medium. The GLP-1 standard and test compounds were respectively diluted to a series of concentrations, which were then added into the above 96-well culture plate at 50 μL/well. The cells were incubated at 37° C. in 5% CO2 for 6 hrs. The activity of luciferase was detected using BRIGHT-GLO™ Luciferase Analytic System, and the reading was performed with a Flexstation3 plate reader machine.

Compared with Cc1ccc(-c2nc(C(=O)NC(Cc3ccc(C#Cc4ccc(NC(=O)OC(C)(C)C)cc4)c(F)c3)C(=O)O)cs2)cc1 (stereo not shown) [Compound 3E], Cc1ccc(N2CCN(C(=O)NC(Cc3ccc(-c4noc(-c5ccc(NC(=O)OC(C)(C)C)cc5)n4)c(F)c3)C(=O)O)CC2)cc1 (stereo not shown) [Compound 4D] is higher in activation at 1 µM: 40 to 60% for the first, over 60% for the second.

CC(C)(C)OC(=O)Nc1ccc(-c2nc(-c3ccc(CC(NC(=O)c4cc(-c5ccc(Cl)cc5F)c[nH]4)C(=O)O)cc3F)no2)cc1 (stereo not shown) [Compound 3L] and CC(C)(C)OC(=O)Nc1ccc(-c2nc(-c3ccc(CC(NS(=O)(=O)c4ccc(Br)c(F)c4)C(=O)O)cc3F)no2)cc1 (stereo not shown) [Compound 3O] fall in the same range of activation at 1 µM: 20 to 40% for the first, 20 to 40% for the second.

Compared with Cc1ccc(S(=O)(=O)NC(Cc2ccc(-c3noc(-c4ccc(NC(=O)OC(C)(C)C)cc4)n3)c(F)c2)C(=O)O)cc1Cl (stereo not shown) [Compound 3P, 3-{4-[5-(4-tert-Butoxcarbonylamino-phenyl)-[1,2,4]oxadiazol-3-yl]-3-fluorophenyl}-2-(3-chloro-4-methyl-benzenesulfonylamino)-propionic acid], CC(C)(C)OC(=O)Nc1ccc(-c2nc(-c3ccc(C[C@@H](NS(=O)(=O)c4ccc(-c5ccccc5)cc4)C(=O)O)cc3F)no2)cc1 [Compound 3Q] is lower in activation at 1 µM: 40 to 60% for the first, 20 to 40% for the second.

Compared with CC1CCN(c2cccc(C(=O)NC(Cc3ccc(-c4noc(-c5ccc(NC(=O)OC(C)(C)C)cc5)n4)c(F)c3)C(=O)O)c2)CC1 (stereo not shown) [Compound 3S], CC1CCN(S(=O)(=O)NC(Cc2ccc(-c3noc(-c4ccc(NC(=O)OC(C)(C)C)cc4)n3)c(F)c2)C(=O)O)CC1 (stereo not shown) [Compound 3W] is lower in activation at 1 µM: over 60% for the first, 40 to 60% for the second.

First: CC(C)(C)OC(=O)Nc1ccc(-c2nc(-c3ccc(CC(NC(=O)c4cccc(NCc5ccccc5)c4)C(=O)O)cc3F)no2)cc1 (stereo not shown) [Compound 3U]
Second: Cc1cccc(CN2CCN(S(=O)(=O)NC(Cc3ccc(-c4noc(-c5ccc(NC(=O)OC(C)(C)C)cc5)n4)c(F)c3)C(=O)O)CC2)c1 (stereo not shown) [Compound 4C]
The activation at 1 µM of the first is lower: 20 to 40% for the first, over 60% for the second.

Same assay, conditions: 6 h; concentration 3 μM; read-out: Activity (agonist), percentage of the activity of the control

First: Cc1cc(-n2cc(C(=O)NC(Cc3ccc(-c4noc(-c5ccc(NC(=O)OC(C)(C)C)cc5)n4)c(F)c3)C(=O)O)cn2)ccc1F (stereo not shown) [Compound 3G]
Second: CC(C)(C)OC(=O)Nc1ccc(-c2nc(-c3ccc(CC(NC(=O)c4cc(-c5ccc(F)cc5)n[nH]4)C(=O)O)cc3F)no2)cc1 (stereo not shown) [Compound 3R]
The activation at 3 µM of the first is lower: 40 to 60% for the first, over 60% for the second.

CC(C)(C)OC(=O)Nc1ccc(-c2nc(-c3ccc(CC(NC(=O)c4cn(Cc5ccc(F)cc5)nn4)C(=O)O)cc3F)no2)cc1 (stereo not shown) [Compound 3K] and CC(C)(C)OC(=O)Nc1ccc(-c2nc(-c3ccc(CC(NC(=O)c4ccc(N5CCOCC5)cc4)C(=O)O)cc3F)no2)cc1 (stereo not shown) [Compound 3V] fall in the same range of activation at 3 µM: 20 to 40% for the first, 20 to 40% for the second.

Cc1ccc(CN2CCN(S(=O)(=O)NC(Cc3ccc(-c4noc(-c5ccc(NC(=O)OC(C)(C)C)cc5)n4)c(F)c3)C(=O)O)CC2)cc1 (stereo not shown) [Compound 3X, 3-{4-[5-(4-tert-Butoxycarbonylamino-phenyl)-[1,2,4]oxadiazol-3-yl]-3-fluoro-phenyl}-2-[4-(4-methyl-benzyl)-piperazine-1-sulfonylamino]-propionic acid] and Cc1ccc(N2CCN(S(=O)(=O)NC(Cc3ccc(-c4noc(-c5ccc(NC(=O)OC(C)(C)C)cc5)n4)c(F)c3)C(=O)O)CC2)cc1 (stereo not shown) [Compound 3Z] cannot be ordered by activation at 3 µM: over 60% for the first, over 60% for the second.

CC(C)(C)OC(=O)Nc1ccc(C#Cc2ccc(CC(NC(=O)c3cccc(-c4ccc(Cl)cc4)c3)C(=O)O)cc2F)cc1 (stereo not shown) [Compound 4E] gave an activation at 3 µM of 20 to 40%.

Same assay, conditions: 6 h; concentration 3.16 μM; read-out: Activity (agonist), percentage of the activity of the control

CC(C)(C)OC(=O)Nc1ccc(-c2nc(-c3ccc(CC(NC(=O)c4c[nH]c(-c5ccc(Cl)cc5)n4)C(=O)O)cc3F)no2)cc1 (stereo not shown) [Compound 2S] and Cn1c(C(=O)NC(Cc2ccc(-c3noc(-c4ccc(NC(=O)OC(C)(C)C)cc4)n3)c(F)c2)C(=O)O)cnc1-c1ccc(Cl)cc1 (stereo not shown) [Compound 2Y] cannot be ordered by activation at 3.16 µM: over 60% for the first, over 60% for the second.

First: CC(C)(C)OC(=O)Nc1ccc(-c2nc(-c3ccc(CC(NC(=O)c4c[nH]c(-c5ccc(Br)cn5)n4)C(=O)O)cc3F)no2)cc1 (stereo not shown) [Compound 2V]
Second: CC(C)(C)OC(=O)Nc1ccc(-c2nc(-c3ccc(CC(NC(=O)Nc4ccncc4)C(=O)O)cc3F)no2)cc1 (stereo not shown) [Compound 4H]
The activation at 3.16 µM of the first is lower: 40 to 60% for the first, over 60% for the second.

CC(C)(C)OC(=O)Nc1ccc(-c2nc(-c3ccc(CC(NC(=O)c4cnn(-c5ccc(F)c(F)c5)c4)C(=O)O)cc3F)no2)cc1 (stereo not shown) [Compound 2Z] and Cc1ccc(-n2cc(C(=O)NC(Cc3ccc(-c4noc(-c5ccc(NC(=O)OC(C)(C)C)cc5)n4)c(F)c3)C(=O)O)cn2)cc1F (stereo not shown) [Compound 3B] cannot be ordered by activation at 3.16 µM: over 60% for the first, over 60% for the second.

First: CC(C)(C)OC(=O)Nc1ccc(-c2nc(-c3ccc(CC(NC(=O)c4cnn(-c5ccc(C(C)(C)C)cc5)c4)C(=O)O)cc3F)no2)cc1 (stereo not shown) [Compound 3A]
Second: Cc1cc(Cn2cc(C(=O)NC(Cc3ccc(-c4noc(-c5ccc(NC(=O)OC(C)(C)C)cc5)n4)c(F)c3)C(=O)O)cn2)ccc1F (stereo not shown) [Compound 3F]
The activation at 3.16 µM of the first is higher: over 60% for the first, 20 to 40% for the second.

First: Cc1ccc(S(=O)(=O)NC(C)(Cc2ccc(-c3noc(-c4ccc(NC(=O)OC(C)(C)C)cc4)n3)c(F)c2)C(=O)O)cc1 (stereo not shown) [Compound 3N]
Second: CC(C)(C)OC(=O)Nc1ccc(-c2nc(-c3ccc(CC(NS(=O)(=O)N4CCN(c5ccccc5F)CC4)C(=O)O)cc3F)no2)cc1 (stereo not shown) [Compound 4B]
The activation at 3.16 µM of the first is lower: 20 to 40% for the first, 40 to 60% for the second.

First: CC(C)(C)OC(=O)Nc1ccc(-c2nc(-c3ccc(CC(NC(=O)N4CCN(C(=O)OC(C)(C)C)CC4)C(=O)O)cc3F)no2)cc1 (stereo not shown) [Compound 4F]
Second: CC(C)(C)OC(=O)Nc1ccc(-c2nc(-c3ccc(CC(NC(=O)Nc4cc(-c5ccccc5)n[nH]4)C(=O)O)cc3F)no2)cc1 (stereo not shown) [Compound 4G]
The activation at 3.16 µM of the first is lower: 40 to 60% for the first, over 60% for the second.

With CC(C)(C)OC(=O)Nc1ccc(-c2nc(-c3ccc(CC(NC(=O)Nc4cc(-c5ccc(Cl)cc5)n[nH]4)C(=O)O)cc3F)no2)cc1 (stereo not shown) [Compound 4I] the activation at 3.16 µM was over 60%.

Same assay, conditions: 6 h; concentration 10 μM; read-out: Activity (agonist), percentage of the activity of the control

CC(C)(C)OC(=O)Nc1ccc(-c2nc(-c3ccc(CC(NC(=O)c4cnn(-c5ccc(F)cc5)c4)C(=O)O)cc3F)no2)cc1 (stereo not shown) [Compound 2T] and CC(C)(C)OC(=O)Nc1ccc(-c2nc(-c3ccc(CC(NC(=O)c4cc(-c5ccc(F)cc5)no4)C(=O)O)cc3F)no2)cc1 (stereo not shown) [Compound 2U] cannot be ordered by activation at 10 µM: over 60% for the first, over 60% for the second.

COc1ccc(Cn2cc(C(=O)NC(Cc3ccc(-c4noc(-c5ccc(NC(=O)OC(C)(C)C)cc5)n4)c(F)c3)C(=O)O)cn2)cc1 (stereo not shown) [Compound 2W] and CC(C)(C)OC(=O)Nc1ccc(-c2nc(-c3ccc(CC(NC(=O)c4cn(Cc5ccc(F)c(F)c5)nn4)C(=O)O)cc3F)no2)cc1 (stereo not shown) [Compound 3C] cannot be ordered by activation at 10 µM: over 60% for the first, over 60% for the second.

Compared with Cc1ccc(-c2nc(C(=O)NC(Cc3ccc(-c4noc(-c5ccc(NC(=O)OC(C)(C)C)cc5)n4)c(F)c3)C(=O)O)co2)cc1 (stereo not shown) [Compound 2X], CC(C)(C)OC(=O)Nc1ccc(-c2nc(-c3ccc(CC(NC(=O)c4coc(-c5ccc(Cl)cc5)n4)C(=O)O)cc3F)no2)cc1 (stereo not shown) [Compound 3H] is lower in activation at 10 µM: over 60% for the first, 20 to 40% for the second.

First: CC(C)c1ccc(-n2cnc(C(=O)NC(Cc3ccc(-c4noc(-c5ccc(NC(=O)OC(C)(C)C)cc5)n4)c(F)c3)C(=O)O)n2)cc1 (stereo not shown) [Compound 3D]
Second: CC(C)(C)OC(=O)Nc1ccc(-c2nc(-c3ccc(CC(NC(=O)c4ncn(-c5ccc(C(C)(C)C)cc5)n4)C(=O)O)cc3F)no2)cc1 (stereo not shown) [Compound 3I]
The activation at 10 µM of the first is higher: over 60% for the first, 40 to 60% for the second.

First: CC(C)(C)OC(=O)Nc1ccc(-c2nc(-c3ccc(CC(NC(=O)c4ccn(-c5ccc(C(F)(F)F)cc5)n4)C(=O)O)cc3F)no2)cc1 (stereo not shown) [Compound 3J]
Second: CC(C)(C)OC(=O)Nc1ccc(-c2nc(-c3ccc(CC(NS(=O)(=O)N4CCN(c5ccc(C(F)(F)F)cc5)CC4)C(=O)O)cc3F)no2)cc1 (stereo not shown) [Compound 3Y]
The activation at 10 µM of the first is lower: 40 to 60% for the first, over 60% for the second.

First: CC(C)(C)OC(=O)Nc1ccc(-c2nc(-c3ccc(CC(Nc4ccnc(N5CCCCC5)n4)C(=O)O)cc3F)no2)cc1 (stereo not shown) [Compound 3M, 3-{4-[5-(4-tert-Butoxycarbonylamino-phenyl)-[1,2,4]oxadiazol-3-yl]-3-fluoro-phenyl}-2-(2-piperidin-1-yl-pyrimidin-4-ylamino)-propionic acid]
Second: CC(C)(C)OC(=O)Nc1ccc(-c2nc(-c3ccc(CC(NS(=O)(=O)N4CCN(c5ccc(Cl)cc5)CC4)C(=O)O)cc3F)no2)cc1 (stereo not shown) [Compound 4A]
The activation at 10 µM of the first is lower: 20 to 40% for the first, 40 to 60% for the second.

For CC(C)(C)OC(=O)Nc1ccc(-c2nc(-c3ccc(CC(NC(=O)c4cccc(Nc5ccccc5)c4)C(=O)O)cc3F)no2)cc1 (stereo not shown) [Compound 3T], the activation at 10 µM was 40 to 60%.
